# Source: US8088827B2, “Use of irbesartan for the preparation of medicinal products that are useful for treating pulmonary hypertension” (Sanofi-Aventis, priority 2001, dated 2012)
# Columns and labels:
# [1] = test system: pulmonary hypertension induced by injection of monocrotaline in rats; assay: Survival of rats with monocrotaline-induced pulmonary hypertension; format: in vivo, Male Sprague-Dawley rats
# Protocol: Male Sprague-Dawley rats weighing about 300 g received a subcutaneous injection of monocrotaline (MCT) at a dose of 80 mg/kg.
# The treatment with irbesartan was started either 21 days or 14 days after injection of monocrotaline. Irbesartan was incorporated into the food in powder form. The control animals received food alone.
# Throughout the study, the animals were examined daily.
# In a first study, irbesartan was administered alone at a dose of 50 mg/kg. In a second study, irbesartan was administered alone at a dose of 30 mg/kg and in combination with hydrochlorothiazide (HCTZ): irbesartan: 30 mg/kg and HCTZ: 10 mg/kg.
# [2] = test system: pulmonary hypertension induced with monocrotaline; details: reported by L. Cassis et al. and R. Kreutz et al.; cited from earlier work
# [3] = Study 2, treatment started on the 14th day post-MCT, irbesartan 30 mg/kg, HCTZ 10 mg/kg, alone or in combination
# [4] = Study 1, irbesartan 50 mg/kg in food, treatment started on the 14th day after MCT 80 mg/kg s.c.
# [5] = Study 1, irbesartan 50 mg/kg in food, treatment started on the 21st day after MCT 80 mg/kg s.c.
compound,measurement,setting,value
"NS(=O)(=O)c1cc2c(cc1Cl)NCNS2(=O)=O [HCTZ, hydrochlorothiazide]",Survival to the 50th day,[1]; [3],25%
same,Survival to the end of the study (85th day),[1]; [3],4.2%
CCCCC1=NC2(CCCC2)C(=O)N1Cc1ccc(-c2ccccc2-c2nnn[nH]2)cc1 [Irbesartan],Survival time of the MCT-treated rats,"[1]; 50 mg/kg/day, either from the 21st day or from the 14th day post-MCT",significantly increased the survival time
same,Survival to the 25th day,[1]; [4],100% (12/12)
same,Survival to the 50th day,[1]; [4],83% (10/12)
same,Survival to the end of the study (100th day),[1]; [4],50% (6/12)
same,Survival to the end of the study (100th day),"[1]; Study 1, irbesartan 50 mg/kg in food, treatment started on the 14th day after MCT 80 mg/kg s.c., listed as irbesartan",50%
same,Survival to the 25th day,[1]; [5],100% (18/18)
same,Survival to the 50th day,[1]; [5],72% (13/18)
same,Survival to the end of the study (57th day),[1]; [5],61% (11/18)
same,Survival to the end of the study (57th day),"[1]; Study 1, irbesartan 50 mg/kg in food, treatment started on the 21st day after MCT 80 mg/kg s.c., listed as irbesartan",61%
same,Overall survival time estimated,"[1]; Study 1, irbesartan 50 mg/kg, treatment started on the 14th day post-MCT, control group 46 days",> 93 days
same,Median estimated survival time,"[1]; Study 2, treatment started on the 14th day post-MCT, irbesartan 30 mg/kg alone or with HCTZ 10 mg/kg",46 days
same,Survival to the 50th day,[1]; [3],47.8%
same,Survival to the end of the study (85th day),[1]; [3],0%
CCCCc1nc(Cl)c(CO)n1Cc1ccc(-c2ccccc2-c2nn[nH]n2)cc1 [losartan],Effect in the monocrotaline pulmonary hypertension model,[2],no effect
